The values that follow come from patent US20130315829A1, “Compounds and Methods for Detecting Reactive Oxygen Species” (The Regents of the University of California, priority 2010, published 2013).

In one assay the test system is LNCaP-luc tumors. Briefly: LNCaP-luc tumor xenograft model in SHO mice. In kind it is in vivo, mouse.
Assay [1] deals with LNCaP-luc cells. Description: Paraquat stimulation of endogenous H2O2 in LNCaP-luc cells, with or without catalase. In kind it is cell-based, human.
Method: A Xenogen IVIS Spectrum instrument (Caliper Life Sciences, Hopkinton, Mass.) was used for bioluminescent imaging in all ex vivo experiments. […] Cells were split twice per week. Prior to assaying, cells were passed and plated (4×10^4 cells/well) in black 96-well plates with clear bottoms (Becton Dickinson and Company, Franklin Lakes, N.J.). Two days after being plated, once the cells were ca. 95% confluent, the medium was removed and PCL-1 (2.5% final DMSO concentration) and H2O2 (2.5-500 μM final concentrations) in DMEM (−FBS) were added. The plate was immediately imaged for 2 hours. For stimulation experiments, the cells (ca. 95 confluent) were incubated with paraquat (0 or 500 μM, 100 μL DMEM+10% FBS) for 24 hours prior to the addition of PCL-1 (50 μM) with or without catalase (1×10̂4 U/L).
To determine whether PCL-1 could detect endogenously produced H2O2 in living cells, LNCaP-luc cells were incubated with 500 μM paraquat for 24 hours, as previous work establishes that paraquat triggers elevations in intracellular H2O2 through disruption of the mitochondrial electron transport chain. Following paraquat stimulation, the LNCaP-luc cells were loaded with PCL-1 and the subsequent bioluminescent signal was detected.
Because luciferin is a cell-permeable small molecule, two possible modes of action for PCL-1 are (i) reaction of this probe with H2O2 in the extracellular medium followed by cellular uptake of the free luciferin product, or (ii) reaction of PCL-1 with intracellular H2O2 to generate luciferin within cells. To probe whether PCL-1 was reacting with H2O2 in the intra- or extracellular space, catalase was added as a cell-impermeable scavenger for extracellular H2O2 with paraquat stimulation.
Assay [2] has as its system LNCaP-luc cells. Description: Bioluminescence of LNCaP-luc cells with PCL-1 and exogenous H2O2. Format: cell-based, human. Conditions: PCL-1 50 μM. As for the experimental part:
A Xenogen IVIS Spectrum instrument (Caliper Life Sciences, Hopkinton, Mass.) was used for bioluminescent imaging in all ex vivo experiments. LNCaP-luc cells (kindly provided by Chris Contag, Stanford University) were cultured in Dulbecco's Modified Eagle Medium (DMEM) containing 10% Fetal Bovine Serum (FBS). Cells were split twice per week. Prior to assaying, cells were passed and plated (4×10^4 cells/well) in black 96-well plates with clear bottoms (Becton Dickinson and Company, Franklin Lakes, N.J.). Two days after being plated, once the cells were ca. 95% confluent, the medium was removed and PCL-1 (2.5% final DMSO concentration) and H2O2 (2.5-500 μM final concentrations) in DMEM (−FBS) were added. The plate was immediately imaged for 2 hours. For stimulation experiments, the cells (ca. 95 confluent) were incubated with paraquat (0 or 500 μM, 100 μL DMEM+10% FBS) for 24 hours prior to the addition of PCL-1 (50 μM) with or without catalase (1×10̂4 U/L).
With data showing that PCL-1 is a selective and sensitive bioluminescent reporter for H2O2 in aqueous solution, this system was applied to imaging changes in H2O2 levels in cell culture. […] To achieve this goal, PCL-1 and H2O2 were added to LNCaP-luc cells stably transfected with the firefly luciferase gene. In the absence of H2O2, the bioluminescent signal from the cells was negligible. In contrast, addition of 2.5 to 500 μM H2O2 triggers a linear increase, up to 250 μM, in the total observed photon flux (FIG. 3). The 2.5 μM detection limit for H2O2 is well within estimated concentration ranges of endogenously produced H2O2 fluxes.
Total photon flux, integrated over 2 h, from LNCaP-luc cells with PCL-1 (50 μM) and H2O2 (2.5-500 μM) in DMEM. All values show statistically significant differences (p<0.001) except between 250 and 500 μM H2O2. (b) Total photon flux, integrated over 2 h, from LNCaP-luc cells incubated with paraquat (0 or 500 μM) for 24 h, followed by addition of PCL-1 (50 μM)±catalase (1×10̂4 U/L). […]

Assay [3] relates to FVB-luc mice. Description: In vivo exogenous H2O2 experiments in FVB-luc mice. To be noted: PCL-1 i.p. 0.5 μmol. Set-up: species or system mouse. The source says:
(§1) A Xenogen IVIS Spectrum instrument (Caliper Life Sciences, Hopkinton, Mass.) was used for bioluminescent imaging in all in vivo experiments. Phosphate Buffered Saline (PBS) was purchased from Thermo Fisher Scientific (Waltham, Mass.). Isoflurane was purchased from Phoenix Pharmaceuticals, Inc. (St. Joseph, Mo.), and sterile DMSO was purchased from Sigma-Aldrich (St. Louis, Mo.). Medical grade oxygen was purchased from Praxair (Danbury, Conn.).
(§2) Animals. FVB-luc (FVB-Tg(CAG-luc,-GFP)L2G85Chco/J) mice were obtained from UC Davis, and SHO mice were obtained from Charles River Labs. Mice were single or group-housed on a 12:12 light-dark cycle at […] with free access to food and water. All studies were approved and performed according to the guidelines of the Animal Care and Use Committee of the University of California, Berkeley.
Adult FVB-luc mice were anesthetized with isoflurane and injected (i.p.) with PCL-1 (0.5 μmol, 50 μL 1:1 DMSO:PBS), followed immediately by an i.p. injection of H2O2 (0.0375, 0.15, 0.6, and 2.4 μmol in 100 μL PBS). Control mice were injected with PCL-1 and 100 μL PBS.
(§3) PCL-1 was applied to molecular imaging of H2O2 in living animals. Initial studies utilized FVB-luc mice that ubiquitously express firefly luciferase along with exogenous peroxide addition. […]

The nature of assay [4]: In vitro ROS selectivity test with purified firefly luciferase: other ROS. Format: biochemical. Conditions: PCL-1 5 μM, ROS 100 μM, 5-60 minutes, then firefly luciferase. On the procedure:
(§4) Millipore water was used to prepare all aqueous solutions. Measurements for in vitro tests were performed in 50 mM Tris buffer, pH 7.4, with 10 mM MgCl2, 0.1 mM ZnCl2, and 2 mM ATP at 37° C. Bioluminescent measurements for in vitro tests were recorded using a Molecular Devices SpectraMax M2 plate reader (Sunnyvale, Calif.). Samples for bioluminescent measurements were placed in white, opaque 96-well plates, which were purchased from Corning Inc. (Corning, N.Y.). ATP was purchased from MP Biomedicals (Solon, Ohio), and luciferase was purchased from Promega (Madison, Wis.).
(§5) Various reactive oxygen species (ROS, 100 μM) were administered to PCL-1 (5 μM) in the Tris buffer as follows. Hydrogen peroxide (H2O2), tert-butyl hydroperoxide (TBHP), and hypochlorite (OCl^−) were delivered from 30%, 70%, and 6.15% aqueous solutions, respectively. […]
(§6) Initial experiments tested the ability of PCL-1 to detect H2O2 in a selective and concentration-dependent manner. […] PCL-1 was incubated with various ROS for 5-60 minutes followed by addition of firefly luciferase, and then light production was measured over 45 minutes to determine whether luciferin was produced during the ROS incubation period. The total normalized photon flux was calculated by dividing each total photon flux by the zero timepoint total photon flux for each run to allow a direct comparison between various ROS. […]

A short description of assay [5]: In vitro ROS selectivity test with purified firefly luciferase: H2O2. In kind it is biochemical. To be noted: PCL-1 5 μM, H2O2 100 μM, over an hour, then firefly luciferase; light integrated over 45 minutes. On the procedure:
as §4, §5, §6

Assay [6] relates to FVB-luc mice. Description: In vivo antioxidant experiments in FVB-luc mice. On the set-up: species or system mouse. Conditions: NAC 0.2 mg i.p. then PCL-1 i.p., total photon flux over one hour.
Excerpt: as §1, §2
Adult FVB-luc mice were anesthetized with isoflurane and injected with N-acetylcysteine (0.2 mg, 100 μL PBS, pH 7-8), followed immediately by an i.p. injection of PCL-1 (5 μmol, 50 μL 1:1 DMSO:PBS). Control mice were injected with 100 μL PBS and PCL-1.
as §3

Method for LNCaP-luc tumors: Animals. […] Mice were single or group-housed on a 12:12 light-dark cycle at 71° C. with free access to food and water.
Tumor xenografts were created via i.p. injection of 3×10̂6 LNCaP-luc cells (100 μL, 1:1 PBS:Matrigel) in adult SHO mice. Tumor size was monitored by injecting 0.5-5 μmol D-lucifeirn (potassium salt, Gold Biotech., St. Louis, Mo.) in PBS. At least two weeks post-inoculation, tumors were injected with PCL-1, valeryl luciferin, testosterone propionate and N-acetylcysteine in various combinations to obtain the experimental data. On day one of the experiments, mice were injected with either PCL-1 (0.5 μmol) or valeryl luciferin (0.44 μmol) and imaged for 45 minutes using an IVIS spectrum. To determine the effect of testosterone on the tumors, the mice were injected with testosterone propionate (3 mg in 50 μL sesame oil) on day 2, followed 1.5 hours later by an injection of PCL-1 (0.5 μmol) or valeryl luciferin (0.44 μmol). Controls for the testosterone experiment were completed by injecting sesame oil (50 μL) on day 2, followed by the probe (0.5 μmol) or valeryl luciferin (0.44 μmol) 1.5 hours later. Additional experiments with N-acetylcysteine were completed by injecting the mice with testosterone propionate (3 mg in 50 μL sesame oil) on day 2, followed 1.5 hours later by injections of N-acetylcysteine (0.2 mg in 100 μL PBS) and PCL-1 (0.5 μmol). Day 2 injections were followed by 45 minutes of imaging.
To study the stimulatory effects of testosterone and H2O2 production in prostate cancer in living animals, an intraperitoneal (i.p.) LNCaP-luc tumor xenograft model was developed in immunodeficient severe combined immunodeficiency hairless outbred (SHO) mice. To determine the baseline levels of H2O2 generation in the tumors as well as alterations in H2O2 fluxes over 24 hours, mice were injected with PCL-1 on Day 1 and with sesame oil, a vehicle used for all experiments, and PCL-1 after 24 hours on Day 2. […] The effects of testosterone (in the form of testosterone propionate) on H2O2 production were tested within the prostate cancer tumors. For these experiments, mice were injected with PCL-1 on Day 1 and the baseline signal was measured. On Day 2, the mice were injected either with testosterone propionate and then PCL-1, or empty vehicle and PCL-1.
These experiments were performed by injecting mice on Day 2 with testosterone propionate, followed by serial application of NAC and PCL-1.

Consider `CCC(=O)O[C@H]1CC[C@H]2[C@@H]3CCC4=CC(=O)CC[C@]4(C)[C@H]3CC[C@]12C` [testosterone propionate], for which the “increase in total photon flux compared to vehicle control mice” value in the assay on LNCaP-luc tumors (SHO mice with LNCaP-luc tumors, testosterone propionate 3 mg in sesame oil, PCL-1 0.5 μmol 1.5 h later) is reported as “approximately 41%”.
As for `C[n+]1ccc(-c2cc[n+](C)cc2)cc1` [paraquat, reference compound], the “PCL-1 derived luminescence compared to unstimulated control cells” value with LNCaP-luc cells [1] (500 μM paraquat for 24 hours, then PCL-1 50 μM) is “patently higher”.
In the case of `O=C(O)[C@H]1CSC(c2nc3ccc(OCc4ccc(B(O)O)cc4)cc3s2)=N1` [PCL-1, (S)-2-(6-(4-Boronobenzyloxy)benzo[d]thiazol-2-yl)-4,5-dihydrothiazole-4-carboxylic acid], the “detection limit for H2O2” value with LNCaP-luc cells [2] was determined as 2.5 µM. Moreover, in the assay on LNCaP-luc cells [2] (H2O2 2.5 to 500 μM, integrated over 2 h), the “H2O2 concentration up to which total observed photon flux increases linearly” value is recorded as “up to 250 μM”. Also, the “bioluminescent signal from the cells in the absence of H2O2” value in the assay with LNCaP-luc cells [2] (no H2O2) is “negligible”. Moreover, the “bioluminescence of mice treated only with PCL-1, no added peroxide” value in the assay on FVB-luc mice [3] is reported as “modest but measurable bioluminescence”. The “integrated total photon flux as a function of the H2O2 concentration” value with FVB-luc mice [3] (then H2O2 i.p., integrated over one hour) is listed as “dose-dependent increase in signal”. Also, in the assay with LNCaP-luc tumors (SHO mice with LNCaP-luc tumors, PCL-1 0.5 μmol Day 1, sesame oil and PCL-1 Day 2), the “change in basal bioluminescent signal from Day 1 to Day 2” value is given as “no change in basal bioluminescent signal”. Moreover, the “increase in bioluminescent signal on reaction with the other ROS” value in assay [4] is on record as “little to no increase in signal”. Besides, in assay [5], the “increase in bioluminescent signal (total normalized photon flux) on addition of H2O2” value was “approximately seven-fold”.
Consider catalase, for which the “bioluminescence signal with catalase plus paraquat compared to paraquat alone” value with LNCaP-luc cells [1] (500 μM paraquat 24 h, PCL-1 50 μM, catalase 1×10^4 U/L) is recorded as “decrease in bioluminescence signal”. Besides, in the assay with LNCaP-luc cells [1] (no paraquat, PCL-1 50 μM, catalase 1×10^4 U/L), the “PCL-1 bioluminescence of catalase-treated cells compared to untreated specimens” value is recorded as “reduces the level of PCL-1 bioluminescence”.
Take `CC(=O)N[C@@H](CS)C(=O)O` [NAC, N-acetylcysteine]: the “bioluminescent signal in testosterone-stimulated animals after NAC treatment” value in the assay on LNCaP-luc tumors (SHO mice with LNCaP-luc tumors, testosterone propionate 3 mg, then NAC 0.2 mg and PCL-1 0.5 μmol) was “reduction in bioluminescent signal in testosterone-stimulated animals back to baseline levels”. In addition, the “bioluminescent signal of NAC-treated animals compared to vehicle control animals” value with FVB-luc mice [6] is on record as “significantly reduced bioluminescent signal”.
Consider `O=C(O)[C@H]1CSC(c2nc3ccc(O)cc3s2)=N1` [luciferin], for which, in the assay with LNCaP-luc tumors (LNCaP-luc cells, peak before first imaging timepoint), the “time after injection at which the signal peak is reached” value is given as less than 1 min.
